Experimental data published in patent US6642215B2 (Leo Pharma A/S, priority 2001, dated 2003).
Like-named read-outs stand apart in the source and are kept apart here.

Legend:
[1] = target: T1, IKK (Homo sapiens, UniProt O14920); assay: In vitro kinase assay: IKK immunoprecipitated from LPS-stimulated THP-1 cells, GST-IκBα phosphorylation; format: biochemical; details: GST-IκB phosphorylated by activated IKK pretreated with the compound
T1 construct: IKK was immunoprecipitated with an IKKα/β antibody; endogenous in cells; host or cells: THP-1 cells stimulated with 1 μg/ml LPS; whole cell extract immunoprecipitated with an IKKα/β antibody (Santa Cruz)
T1 sequence (O14920 whole entry): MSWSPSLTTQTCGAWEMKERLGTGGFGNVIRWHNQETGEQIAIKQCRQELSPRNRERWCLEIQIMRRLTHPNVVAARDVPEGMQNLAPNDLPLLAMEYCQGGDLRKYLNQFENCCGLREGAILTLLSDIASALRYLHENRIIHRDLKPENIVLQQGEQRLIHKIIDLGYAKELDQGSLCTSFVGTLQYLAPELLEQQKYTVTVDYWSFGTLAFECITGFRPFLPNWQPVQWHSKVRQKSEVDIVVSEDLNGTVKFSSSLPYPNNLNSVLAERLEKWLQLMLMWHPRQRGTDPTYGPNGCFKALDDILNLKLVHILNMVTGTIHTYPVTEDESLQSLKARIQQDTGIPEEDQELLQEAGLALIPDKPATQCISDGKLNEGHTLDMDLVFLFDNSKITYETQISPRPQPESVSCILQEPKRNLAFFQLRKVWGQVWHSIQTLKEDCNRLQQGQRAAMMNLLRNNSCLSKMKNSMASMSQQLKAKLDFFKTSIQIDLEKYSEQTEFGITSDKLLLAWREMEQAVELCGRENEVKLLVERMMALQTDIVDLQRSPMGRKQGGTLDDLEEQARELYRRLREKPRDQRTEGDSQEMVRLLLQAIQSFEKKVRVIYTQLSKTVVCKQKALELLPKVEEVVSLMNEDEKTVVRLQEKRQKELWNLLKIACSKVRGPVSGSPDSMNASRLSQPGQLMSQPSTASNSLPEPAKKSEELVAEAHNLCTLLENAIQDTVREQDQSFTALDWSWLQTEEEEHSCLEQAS
T1 sequence (O15111 whole entry partner): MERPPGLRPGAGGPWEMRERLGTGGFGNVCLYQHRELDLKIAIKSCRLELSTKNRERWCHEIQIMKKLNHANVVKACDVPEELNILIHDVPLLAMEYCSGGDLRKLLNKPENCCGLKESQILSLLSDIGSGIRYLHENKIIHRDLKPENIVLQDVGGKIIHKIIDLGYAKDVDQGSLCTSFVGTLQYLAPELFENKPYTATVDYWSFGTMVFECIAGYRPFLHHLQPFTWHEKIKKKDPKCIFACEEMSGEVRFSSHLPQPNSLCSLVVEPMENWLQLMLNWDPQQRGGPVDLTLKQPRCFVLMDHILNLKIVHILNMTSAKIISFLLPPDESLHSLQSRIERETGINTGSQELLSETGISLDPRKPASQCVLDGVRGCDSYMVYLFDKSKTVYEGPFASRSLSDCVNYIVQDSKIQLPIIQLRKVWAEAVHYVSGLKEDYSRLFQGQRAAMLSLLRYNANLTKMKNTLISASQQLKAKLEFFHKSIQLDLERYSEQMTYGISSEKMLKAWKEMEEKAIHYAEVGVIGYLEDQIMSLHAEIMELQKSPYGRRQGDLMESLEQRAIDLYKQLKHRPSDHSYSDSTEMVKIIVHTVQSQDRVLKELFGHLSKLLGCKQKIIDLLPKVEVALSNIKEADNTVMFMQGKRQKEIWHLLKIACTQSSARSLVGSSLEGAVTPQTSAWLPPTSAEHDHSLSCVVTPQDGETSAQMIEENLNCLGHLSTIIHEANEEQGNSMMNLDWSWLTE
T1 sequence (Q9Y6K9 whole entry partner): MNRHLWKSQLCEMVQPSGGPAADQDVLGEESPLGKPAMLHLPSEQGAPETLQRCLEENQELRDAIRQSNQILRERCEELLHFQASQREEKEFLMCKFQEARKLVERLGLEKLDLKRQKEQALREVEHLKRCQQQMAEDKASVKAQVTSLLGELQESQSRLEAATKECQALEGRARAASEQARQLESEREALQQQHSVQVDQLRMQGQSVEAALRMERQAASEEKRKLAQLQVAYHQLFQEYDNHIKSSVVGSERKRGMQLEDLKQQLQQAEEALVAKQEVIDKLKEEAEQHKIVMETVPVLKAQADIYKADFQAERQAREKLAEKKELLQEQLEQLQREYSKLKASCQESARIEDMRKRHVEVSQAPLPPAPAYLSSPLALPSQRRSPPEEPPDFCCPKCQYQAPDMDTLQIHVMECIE
Experimental: In vitro kinase assay: THP-1 cells (1×10^7 cells) were stimulated with 1 μg/ml LPS for the indicated time periods and whole cell extracts were prepared as described above. IKK was immunoprecipitated with an IKKα/β antibody (raised against amino acid 470-755 of IKKβ of human origin but partially cross-reactive with IKKα as detected by Western Blotting (Santa Cruz Biotechnology Inc.). Compound A was diluted in kinase buffer (25 mM HEPES pH 7.5, 10 mM magnesium acetate, 50 μM ATP) at the appropriate concentrations. The compound was added to the beads for 30 min. at 30° C. The kinase reaction was started by adding 2.5 μg of the GST-IκBα substrate (Santa Cruz Biotechnology Inc.) together with 2 μCi γ-^32P-ATP (Amersham Pharmacia Biotech) per sample. The reaction was allowed to proceed for 30 min. at 30° C., and the IKK activity was measured by the amount of radioactive-labelled GST-IκBα bands, quantified by the STORM860 Phospho-Imager.
A general problem with the kinase assay is prestimulation of the kinase. To achieve a value for the zero-point, the LPS-activated IKK mixture was incubated with 20 μM myricetin (Sigma-Aldrich), which is a known IKKβ inhibitor (S. H. Tsal et al., J. Cell Biochem. 74, 1999, pp. 606-615). This value was subtracted from the all other values. All data are expressed as percentage of the activity of the LPS-activated IKKβ kinase treated with 0.1% DMSO.

[2] = system: NYH SCLC cells; assay: DNA synthesis (tritiated thymidine incorporation) in NYH SCLC cells; format: cell-based; details: incorporation of tritiated thymidine in NYH SCLC cells; read-out: NYH proliferation in vitro (IC50 nM)
Experimental: DNA synthesis: NYH SCLC, HT-1080, Colo-320, PC-3 and H460 cells (7.5×10^3 cells/ml) were seeded in tissue culture vessels and the test compound were added 2 h after plating. Following an incubation for 144 h tritiated thymidine (5 CI/mmol, Amersham Pharmacia Biotech) was added to the culture at the concentration of 1 μCi/ml, and the cells were incubated for additional 4 h. The incorporated thymidine was measured with a β-counter. Each compound concentration was tested in triplicate.

[3] = system: NYH Xenografts; assay: NYH xenografts in nude mice, tumour growth; format: in vivo, NMRI nu/nu mice; details: nude mice with NYH SCLC tumours, 14 days of treatment with 20 mg/kg
Experimental: All of the animal experiments were conducted according to the guidelines and ethical standards of the Danish Committee for Animal Experiments. Female NMRI nu/nu mice 6 weeks of age were purchased from M&B (Ry, Denmark). The mice were allowed an acclimatisation period of 1-3 weeks before start of the experiments. The nude mice were housed in Scantainers under semi-sterile conditions and all handling of mice was performed in a laminar flow bench.
NYH Xenografts. NMRI nu/nu mice were injected with 1×10^7 cells in 0.2 ml media s.c. in both flanks and tumour growth was measured twice weekly. The tumour area was used as expression of the tumour size and was calculated from two perpendicular diameters measured with a digital caliper. Compound A was given for fourteen consecutive days by oral gavage from day 4-6 when the tumour size was 24-30 mm^2. Each treatment group consisted of 10 mice.
Statistical Methods In the animal models, tumour sizes were expressed by the mean of the trends in each treatment group. The trend is the linear increment or tumour size, where tumour size is the square root of the (mean) area of the tumour(s). Comparison with controls was expressed as T/C % and calculated as follows:
A=(overall mean tumour size at baseline+mean trend of treatment*intended days of treatment)
B=(overall mean tumour size at baseline+mean trend of control*intended days of treatment)
Overall mean tumour size at baseline=pooling all treatments this is the mean of all baseline values. For each mouse the baseline value is calculated as the square root of the (mean) area of the tumour(s).
Significance was tested with the Bonferroni correction. This correction is a method for adjusting (lowering) the significance level so the overall finding of one significant difference due to chance is around 5 percent.

[4] = system: NF-κB; assay: NF-κB-dependent luciferase assay in HT-1080 cells, TNF-α stimulation; format: cell-based, human; details: TNF-α 50 ng/ml, up to 24 h
Experimental: (§1) The NF-κB-luciferase reporter plasmid (pBIIX) and pRL-TK control vector described in Example 1 were used for the luciferase assay,
The HT-1080 cells were seeded at a density of 3×10^4 cells/cm^2 in 6 well-plates. The following day, the cells were co-transfected with construct DNA and pRL-TK vector using FuGene Transfection Reagent. A mixture of 10 μl Fugene and 90 μl serum free medium (per well) was prepared and Incubated for 5 min at room temperature. Then, this mixture was transferred to a mixture of construct DNA (1.25 μg per well) and pRL-TK vector (0.25 μg per well), gently mixed, incubated for 15 min at room temperature and added to the cells. The cells were treated at 37° C. with compound A (10^−12−10^−5 M) or DMSO for 24 h before stimulation with TNF-α (50 ng/ml) for 6 h.
(§2) The cell lysate was assayed for luciferase activity using the Dual luciferase kit as described by the manufacturer (Promega). All transfections were performed in triplicate. Firefly luciferase activity was corrected for differences in transfection efficiency by normalizing it to the measured Renilla luciferase activity.
(§3) NF-κB activity was measured by the luciferase assay described in Example 1.

[5] = system: NF-κB; assay: NF-κB-dependent luciferase assay in Colo-320 cells, TNF-α stimulation; format: cell-based, human; details: TNF-α 50 ng/ml, up to 24 h
Experimental: as §1
The Colo-320 cells were seeded with a density of 5×10^4 cells/cm^2 in 6-well plates (NUNC). The following day, the cells were co-transfected with construct DNA and pRL-TK using FuGene Transfection Reagent (Boehringer Mannheim). A mixture of 5 μl Fugene and 95 μl serum free medium (per well) was prepared and incubated for 5 min at room temperature. Then, the mixture was transferred to a mixture of construct DNA (2.5 μg per well) and pRL-TK vector (0.25 μg per well), gently mixed, incubated for 15 min at room temperature and added to the cells. The cells were treated at 37° C. with compound A (10^−12−10^−5 M) or DMSO for 24 h before stimulation with TNF-α (50 ng/ml) for 6 h.
as §2, §3

[6] = system: NF-κB; assay: NF-κB-dependent luciferase assay in PC-3 cells, TNF-α stimulation; format: cell-based, human; details: TNF-α 50 ng/ml, up to 24 h
Experimental: as §1
The PC-3 cells were seeded at a density of 3×10^4 cells/cm^2 in 6 well-plates. The following day, the cells were co-transfected with construct DNA and pRL-TK vector using DOTAP liposomal transfection reagent (Boehringer Mannheim). The construct DNA (4.0 μg per well), the pRL-TK vector (1.0 μg per well), DOTAP (16.7 μl per well) and dH2O (total volume 100 μl per well) were carefully mixed and incubated for 15 min at 37° C. A growth medium without serum (900 μl per well) was added and the transfection mixture (1 ml per well) was added to the cells. After 4 h at 37° C., a growth medium with 20% FBS (1 ml per well) was added. The cells were treated at 37° C. with compound A (10^−12−10^−5 M) or DMSO for 24 h before stimulation with TNF-α (50 ng/ml) for 6 h.
as §2, §3

| IC50 ([1]; cell prints (M), head nM, read-out: IKK activity in vitro (IC50)) | IC50 ([1]; read-out: IKK activity in vitro (IC50 nM)) | Molecule | IC50 [2] | NYH tumor growth in vivo (T/C in %) [3] | NF-κB activity increase compared to the control [4] | NF-κB activity increase compared to the control [5] | effect on the NF-κB activity [6] |
| --- | --- | --- | --- | --- | --- | --- | --- |
| > 1e-05 M |  | CCOC(=O)c1cccc(NC(=NC#N)NCCCCCCOc2ccc(Cl)cc2)c1 [compound E] | 597 ± 42 nM | −17.1% |  |  |  |
|  | 2.2e-08 ± 2.4e-09 M | COc1ccc(NC(=NC#N)NCCCCCCOc2ccc(Cl)cc2)cn1 [compound C] | 567 ± 127 nM |  |  |  |  |
|  |  | TNF-α |  |  | approximately 12 fold | ~46 fold | only a small effect |
